55 compounds from patent publication USRE47221E1, “Tricyclic compounds” (AbbVie Inc., priority 2009, dated 2019) can be followed below.

The target in this test is T1, Jak3 (Homo sapiens, UniProt P52333).
T1 construct: Jak3 enzyme (aa 811-1103); expressed in SF9 cells as a GST fusion; GST; made in house; host or cells: SF9 insect cells
T1 sequence (P52333 811-1103): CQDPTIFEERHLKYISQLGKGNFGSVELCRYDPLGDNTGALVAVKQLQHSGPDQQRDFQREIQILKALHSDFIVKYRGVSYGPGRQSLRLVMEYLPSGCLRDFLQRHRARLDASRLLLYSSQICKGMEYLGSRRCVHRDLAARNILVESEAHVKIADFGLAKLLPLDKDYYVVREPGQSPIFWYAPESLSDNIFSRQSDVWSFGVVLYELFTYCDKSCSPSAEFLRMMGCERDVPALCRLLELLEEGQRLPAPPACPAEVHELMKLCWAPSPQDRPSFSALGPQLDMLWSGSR
In words: Jak3 enzyme data for selected compounds. The format is biochemical.
A word on the IC50: it is the point on the concentration scale where inhibition reaches its midpoint. Take `CC[C@H]1C[C@@H](Oc2cnc(C#N)cn2)C[C@@H]1c1nnc2cnc3[nH]ccc3n12` (single isomer, unassigned) [AA.1.97, 5-(3-ethyl-4-(6H-pyrrolo[2,3-e][1,2,4]triazolo[4,3-a]pyrazin-1-yl)cyclopentyloxy)pyrazine-2-carbonitrile]: the IC50 was greater than 1000 nM.

Take `CC[C@@H]1C[C@H](Oc2cnc(C#N)cn2)C[C@H]1c1nnc2cnc3[nH]ccc3n12` (single isomer, unassigned) [AA.1.98, 5-(3-ethyl-4-(6H-pyrrolo[2,3-e][1,2,4]triazolo[4,3-a]pyrazin-1-yl)cyclopentyloxy)pyrazine-2-carbonitrile]: the IC50 was less than 100 nM.

As for `CC[C@@H]1C[C@@H](OCc2cccc(C#N)c2)C[C@@H]1c1nnc2cnc3[nH]ccc3n12` (single isomer, unassigned) [AA.1.99, 3-((3-ethyl-4-(6H-pyrrolo[2,3-e][1,2,4]triazolo[4,3-a]pyrazin-1-yl)cyclopentyloxy)methyl)benzonitrile], the IC50 was 100 to 1000 nM.

As to `CC[C@H]1C[C@H](OCc2cccc(C#N)c2)C[C@H]1c1nnc2cnc3[nH]ccc3n12` (single isomer, unassigned) [AA.1.100, 3-((3-ethyl-4-(6H-pyrrolo[2,3-e][1,2,4]triazolo[4,3-a]pyrazin-1-yl)cyclopentyloxy)methyl)benzonitrile], the IC50 was greater than 1000 nM.

Consider `CC[C@@H]1C[C@@H](OCc2ccc(C#N)cc2)C[C@@H]1c1nnc2cnc3[nH]ccc3n12` (single isomer, unassigned) [AA.1.101, 4-((3-ethyl-4-(6H-pyrrolo[2,3-e][1,2,4]triazolo[4,3-a]pyrazin-1-yl)cyclopentyloxy)methyl)benzonitrile], for which the half-inhibitory concentration (IC50) was less than 100 nM.

On to `CC[C@H]1C[C@H](OCc2ccc(C#N)cc2)C[C@H]1c1nnc2cnc3[nH]ccc3n12` (single isomer, unassigned) [AA.1.102, 4-((3-ethyl-4-(6H-pyrrolo[2,3-e][1,2,4]triazolo[4,3-a]pyrazin-1-yl)cyclopentyloxy)methyl)benzonitrile], for which the IC50 is greater than 1000 nM.

On to `CC[C@@H]1C[C@@H](Oc2ccc(C#N)c(F)c2)C[C@@H]1c1nnc2cnc3[nH]ccc3n12` (single isomer, unassigned) [AA.1.103, 4-(3-ethyl-4-(6H-pyrrolo[2,3-e][1,2,4]triazolo[4,3-a]pyrazin-1-yl)cyclopentyloxy)-2-fluorobenzonitrile], for which the IC50 was less than 100 nM.

Compound `CC[C@@H]1C[C@@H](Oc2ccc(C#N)cc2F)C[C@@H]1c1nnc2cnc3[nH]ccc3n12` (single isomer, unassigned) [AA.1.104, 4-(3-ethyl-4-(6H-pyrrolo[2,3-e][1,2,4]triazolo[4,3-a]pyrazin-1-yl)cyclopentyloxy)-3-fluorobenzonitrile] had an IC50 of less than 100 nM.

In turn, `CC[C@@H]1C[C@@H](O)C[C@@H]1c1nnc2cnc3[nH]ccc3n12` (single isomer, unassigned) [AA.1.106, 3-ethyl-4-(6H-pyrrolo[2,3-e][1,2,4]triazolo[4,3-a]pyrazin-1-yl)cyclopentanol] registered an IC50 greater than 1000 nM.

On to `CC[C@@H]1C[C@H](NS(=O)(=O)C2CC2)C[C@@H]1n1cnc2cnc3[nH]ccc3c21` (single isomer, unassigned) [Example #23], for which the 50% inhibitory concentration (IC50) is less than 100 nM.

The compound `C[C@@H]1C[C@H](NS(=O)(=O)C2CC2)C[C@@H]1c1cnc2cnc3[nH]ccc3n12` (single isomer, unassigned) [Example #24] gave an IC50 of less than 100 nM.

Regarding `C[C@@H]1C[C@H](NS(=O)(=O)N2CC(F)(F)C2)C[C@@H]1c1cnc2cnc3[nH]ccc3n12` (single isomer, unassigned) [Example #25], the 50% inhibitory concentration (IC50) is less than 100 nM.

On to `CC[C@H]1C[C@@H](OCc2ccc(OC)cc2)C[C@@H]1c1n[nH]c2cnc3[nH]ccc3c12` (single isomer, unassigned) [Example #30], for which the IC50 lay within 100 to 1000 nM.

The compound `CC[C@@H]1C[C@H](OCc2ccc(OC)cc2)C[C@H]1c1n[nH]c2cnc3[nH]ccc3c12` (single isomer, unassigned) [compound 31] gave an IC50 of 100 to 1000 nM.

Take `O=C(N1CCC[C@@H](c2cnc3cnc4[nH]ccc4n23)C1)N1CCC[C@@H]1C(F)(F)F` [AA.1.10, (3-(3H-imidazo[1,2-a]pyrrolo[2,3-e]pyrazin-8-yl)piperidin-1-yl)((R)-2-(trifluoromethyl)pyrrolidin-1-yl)methanone]: the IC50 was 100 to 1000 nM.

Compound `N#C[C@H]1CCN(C(=O)N2CCC[C@@H](c3ncc4cnc5[nH]ccc5n34)C2)C1` [AA.1.12, 1-((R)-3-(6H-imidazo[1,5-a]pyrrolo[2,3-e]pyrazin-1-yl)piperidine-1-carbonyl)pyrrolidine-3-carbonitrile] yielded a concentration for half-maximal inhibition (IC50) of less than 100 nM.

As to `CC[C@@H]1C[C@H](NS(=O)(=O)N2CCC2)C[C@@H]1c1nnc2cnc3[nH]ccc3n12` [D.1.10], the IC50 was in the range of 100 to 1000 nM.

With `CC[C@@H]1C[C@H](NS(=O)(=O)N2CC(F)(F)C2)C[C@@H]1c1nnc2cnc3[nH]ccc3n12` [D.1.11], the half-inhibitory concentration (IC50) is 100 to 1000 nM.

Turning to `CC[C@@H]1C[C@H](NS(=O)(=O)N2CCC[C@H]2C(F)(F)F)CC1c1nnc2cnc3[nH]ccc3n12` (stereo partly shown) [D.1.12], the IC50 lay in the range of 100 to 1000 nM.

The compound `CC[C@@H]1C[C@H](NS(=O)(=O)N2CCC(F)(F)C2)C[C@@H]1c1nnc2cnc3[nH]ccc3n12` [D.1.13] returned an IC50 of 100 to 1000 nM.

`CC[C@@H]1C[C@H](N(C)S(=O)(=O)C2CC2)C[C@@H]1c1nnc2cnc3[nH]ccc3n12` [D.1.21] had an IC50 of 100 to 1000 nM.

The compound `CC[C@@H]1C[C@H](N(CC2CC2)S(=O)(=O)C2CC2)C[C@@H]1c1nnc2cnc3[nH]ccc3n12` [D.1.22] yielded an IC50 of 100 to 1000 nM.

Consider `CC[C@@H]1C[C@H](NS(=O)(=O)CCC(F)(F)F)C[C@@H]1c1nnc2cnc3[nH]ccc3n12` [D.1.24], for which the IC50 fell in the range of 100 to 1000 nM.

In turn, `CC[C@@H]1C[C@H](NS(=O)(=O)C2CC2)CN1c1cnc2cnc3[nH]ccc3n12` [D.1.25] had an IC50 of less than 100 nM.

The compound `O=S(=O)(NC12CCC(c3nnc4cnc5[nH]ccc5n34)(CC1)CC2)N1CCC1` [D.1.29] had an IC50 of 100 to 1000 nM.

Compound `O=S(=O)(NC12CCC(c3nnc4cnc5[nH]ccc5n34)(CC1)CC2)N1CC(F)(F)C1` [D.1.30] registered an IC50 of 100 to 1000 nM.

For `CC[C@@H]1C[C@H](N(CCO)S(=O)(=O)C2CC2)C[C@@H]1c1nnc2cnc3[nH]ccc3n12` [D.1.31], the IC50 is less than 100 nM.

In turn, `CC1(S(=O)(=O)NC23CCC(c4nnc5cnc6[nH]ccc6n45)(CC2)CC3)CC1` [D.1.33] displayed an IC50 greater than 1000 nM.

In turn, `CC[C@@H]1C[C@H](NS(=O)(=O)C2(C)CC2)C[C@@H]1c1nnc2cnc3[nH]ccc3n12` [D.1.35] yielded an IC50 of less than 100 nM.

Take `O=S(=O)(NC12CCC(c3nnc4cnc5[nH]ccc5n34)(CC1)CC2)C1CCC1` [D.1.39]: the 50% inhibitory concentration (IC50) was in the range of 100 to 1000 nM.

`CC[C@@H]1C[C@H](NS(=O)(=O)C2CC2)C[C@@H]1c1nc(Br)c2cnc3[nH]ccc3n12` [D.1.45]: the IC50 was less than 100 nM.

Consider `CC[C@@H]1C[C@H](NS(=O)(=O)C2CC2)CN1c1ncc2cnc3[nH]ccc3n12` [D.1.46], for which the half-inhibitory concentration (IC50) is less than 100 nM.

Compound `C[C@@H]1C[C@H](NS(=O)(=O)C2CC2)CN1c1ncc2cnc3[nH]ccc3n12` [D.1.47] displayed an IC50 of 100 to 1000 nM.

Take `N#Cc1ccc(OCC23C4C5C2C2C3C4C52c2ncc3cnc4[nH]ccc4n23)cc1` (stereo not shown) [D.1.49]: the IC50 fell in the range of 100 to 1000 nM.

`CC[C@@H]1C[C@H](NS(=O)(=O)N2CCN(C)CC2)C[C@@H]1c1nnc2cnc3[nH]ccc3n12` [D.1.50] had an IC50 greater than 1000 nM.

In turn, `FC(F)(F)c1nc2cnc3[nH]ccc3c2n1C1CCCCC1` [D.1.52] showed an IC50 of 100 to 1000 nM.

`C[C@@H]1C[C@H](OCC2CC2)C[C@@H]1c1nnc2cnc3[nH]ccc3n12` [D.1.54]: the IC50 is greater than 1000 nM.

In turn, `CC[C@@H]1C[C@H](NS(=O)(=O)NCCO)C[C@@H]1c1nnc2cnc3[nH]ccc3n12` [D.1.56] came in with a half-inhibitory concentration (IC50) of 100 to 1000 nM.

In turn, `CC[C@@H]1C[C@H](NS(=O)(=O)CCn2ccnn2)C[C@@H]1c1nnc2cnc3[nH]ccc3n12` [D.1.58] had an IC50 of 100 to 1000 nM.

`CC[C@@H]1C[C@H](NS(=O)(=O)CCn2nccn2)C[C@@H]1c1nnc2cnc3[nH]ccc3n12` [D.1.59] came in with an IC50 of 100 to 1000 nM.

Turning to `CC[C@@H]1C[C@H](NS(=O)(=O)CCN2CCC(F)(F)CC2)C[C@@H]1c1nnc2cnc3[nH]ccc3n12` [D.1.60], the IC50 was greater than 1000 nM.

As to `CC[C@@H]1C[C@H](NS(=O)(=O)CCN2CCOCC2)C[C@@H]1c1nnc2cnc3[nH]ccc3n12` [D.1.61], the 50% inhibitory concentration (IC50) was greater than 1000 nM.

In turn, `CC[C@@H]1C[C@H](NCCS(=O)(=O)N2CCC(F)(F)C2)C[C@@H]1c1nnc2cnc3[nH]ccc3n12` [D.1.62] displayed an IC50 greater than 1000 nM.

`O=S(=O)(CCC(F)(F)F)N1CC2CC1CN2c1ncc2cnc3[nH]ccc3n12` (stereo not shown) [D.1.63] showed a half-maximal inhibitory concentration (IC50) greater than 1000 nM.

Turning to `O=S(=O)(CCC(F)(F)F)N1CC2CN(c3ncc4cnc5[nH]ccc5n34)CC2C1` (stereo not shown) [D.1.64], the IC50 is greater than 1000 nM.

In turn, `O=S(=O)(CCC(F)(F)F)N1CCN(c2ncc3cnc4[nH]ccc4n23)CC(F)C1` (stereo not shown) [D.1.65] yielded an IC50 greater than 1000 nM.

Compound `CC[C@@H]1C[C@H](NS(=O)(=O)C(C)(C)C)C[C@@H]1c1nnc2cnc3[nH]ccc3n12` [D.1.67] had an IC50 of 100 to 1000 nM.

The compound `CC1CCN(S(=O)(=O)CCC(F)(F)F)CCN1c1ncc2cnc3[nH]ccc3n12` (stereo not shown) [D.1.70] gave an IC50 of 100 to 1000 nM.

In turn, `O=S(=O)(CCC(F)(F)F)NC1CCCN(c2ncc3cnc4[nH]ccc4n23)C1` (stereo not shown) [D.1.72] returned an IC50 of 100 to 1000 nM.

Regarding `O=S(=O)(CCC(F)(F)F)N1CCC2CC1CN2c1ncc2cnc3[nH]ccc3n12` (stereo not shown) [D.1.73], the IC50 was greater than 1000 nM.

For `O=S(=O)(NC12CCC(c3ccc4cnc5[nH]ccc5n34)(CC1)CC2)C1CC1` [D.1.76], the IC50 lay within 100 to 1000 nM.

On to `C[C@@H]1C[C@H](NS(=O)(=O)C2(C)CC2)C[C@@H]1c1ncc2cnc3[nH]ccc3n12` [D.1.77], for which the IC50 lay in the range of 100 to 1000 nM.

As to `C[C@@H]1C[C@H](NS(=O)(=O)N2CC(F)(F)C2)C[C@@H]1c1ncc2cnc3[nH]ccc3n12` [D.1.78], the IC50 is less than 100 nM.

`C[C@@H]1C[C@H](NS(=O)(=O)CCC(F)(F)F)C[C@@H]1c1ncc2cnc3[nH]ccc3n12` [D.1.79] gave an IC50 of less than 100 nM.

For `C[C@@H]1C[C@H](NS(=O)(=O)N2CCC(F)(F)C2)C[C@@H]1c1ncc2cnc3[nH]ccc3n12` [D.1.80], the IC50 is less than 100 nM.
